Like-named read-outs stand apart in the source and are kept apart here.
Experiments:
hCB2 [1] = molecular target: T1, hCB2 (Homo sapiens, UniProt P34972); experiment: Binding affinity hCB2, [3H]-CP-55,940 displacement
Description: (§1) Measurement of Affinity. The binding studies were carried out in accordance with the protocols described by El Bakali et al. (El Bakali, J.; Muccioli, G. G.; Renault, N.; Pradal, D.; Body-Malapel, M.; Djouina, M.; Hamtiaux, L.; Andrzejak, V.; Desreumaux, P.; Chavatte, P.; Lambert, D. M.; Millet, R. 4-Oxo-1,4-Dihydropyridines as Selective CB2 Cannabinoid Receptor Ligands: Structural Insights into the Design of a Novel Inverse Agonist Series. J. Med. Chem. 2010, 53, 7918-7931) but applying a small modification. Briefly, the [3H]-CP-55,940 (0.5 nM) chosen as a radioligand for the CB1 and CB2 human receptors is added to 6 μg of membranes resuspended in 550 μl (final volume) of buffer (20 mM Hepes, 5 mM MgCl2, 1 mM EDTA, 0.3% bovine serum albumin, pH 7.4). After 1 hour at 30° C., incubation is stopped and the solution is quickly filtered on Harvester, through the “Unifilter 96 (PerkinElmer)” filter previously saturated with bonding buffer (20 mM Hepes, 5 mM MgCl2, 1 mM EDTA, 0.3% bovine serum albumin, pH 7.4), and then washed 20 times with iced binding buffer without serum albumin. The radioactivity of the filters was measured using the “TopCount NXT Microplate Scintillation Counter (PerkinElmer)” after addition of 60 μl of “MicroScint 40 (PerkinElmer)” scintillation liquid. The experiments were carried out in triplicate. The non-specific binding was determined in the presence of 5 μM (R)-(+)-WIN 55,212-2 (Sigma).
(§2) Analysis of the Data. The values of Ki and EC50 were determined by non-linear regression carried out by the “GraphPad Prism 5.0” program (GraphPad Software, San Diego). The statistical analysis of the results of the [^35S]-GTPγS dosing was carried out by means of the “Student” test.

hCB1 = hCB1 (Homo sapiens, UniProt P21554); experiment: Binding affinity hCB1, [3H]-CP-55,940 displacement
Description: as §1, §2

hCB2 [2] = molecular target: T1, hCB2; experiment: [35S]-GTPγS functional activity (hCB2); type: biochemical
Description: Dosing of [^355]-GTPγS. The studies were carried out at 30° C. in tubes containing 10 μg of protein in 0.5 ml (final volume) of buffer (20 mM Hepes, 10 mM MgCl2, 100 mM NaCl, 0.1% bovine serum albumin, pH 7.4) supplemented with 30 μm of GDP. The dosing was initiated by the addition of [^35S]-GTPγS (0.1 nM, final concentration). After 1 hour at 30° C., the incubation was stopped and the solution was quickly filtered on the “Unifilter-96 GF/B” filter and washed 20 times with iced bonding buffer. The radioactivity on the filters was counted as mentioned above. The non-specific binding was measured in the presence of 100 μm of Gpp(NH)p. The results were expressed in EC50 (nM) and Emax (%).
as §2

colitis caused by TNBS = experiment: Model of colitis caused by TNBS in mice; type: in vivo, C57B16 male mice
Description: C57B16 male mice (n=10 per group) have free access to food and water. To cause colitis, the mice are anaesthetised for 90-120 minutes by subcutaneous administration of zylasine-ketamine (50 mg/kg) diluted in physiological serum, then receive an intrarectal administration of TNBS (40 μl, 150 mg/kg) diluted in a 1:1 mixture of 0.9% NaCl and 100% ethanol. The novel CB2 agonists are diluted in 0.5% carboxymethyl cellulose (Sigma-Aldrich, Saint Quentin Fallavier, France) for a dose administered by gavage of 0.1, 1 and 10 mg/kg body weight/day. JWH133, a known CB2 agonist (Kimball E S, Schneider C R, Wallace N H, Hornby P J. Agonists of cannabinoid receptor 1 and 2 inhibit experimental colitis induced by oil of mustard and by dextran sulfate soldium. Am. J. Physiol. Gastrointest. Liver Physiol., 2006, 291, G364-71.), is administered intraperitoneally at a dose of 0.1 mg/kg body weight/day. The animals are euthanised 5 days after the administration of TNBS. The intensity of the colitis at macroscopic and histological levels is assessed in each colon blind by 2 investigators. The scale of the macroscopic scores of the lesions ranges from 0 to 10 according to characteristics reflecting inflammation, such as hyperaemia, thickening of the intestinal wall and the extent of ulcerations. A localised colon biopsy precisely 2 cm above the anal channel is used for histological analysis following a May-Grunwald Giemsa colouring. The histological score varies between 0 and 6 and takes into account the degree of inflammatory infiltrate, the presence of erosion, ulcerations and necrosis of the mucosa, and the level of extension of the lesions in depth and on the surface reached. Two other colon biopsies are frozen and used to analyse the levels of mRNA of inflammatory cytokines by PCR in real time. The total mRNAs of the colon are extracted using the Nucleospin RNAII kit (Macherey Nagel, Hoerdt, France) and then retrotranscripts using the High-Capacity cDNA Reverse Transcription Kit (Applied Biosystems), Foster City, USA). The real-time PCR is carried out with SYBR Green (Applied Biosystems, Foster City, USA). The specific primers for TNF-alpha (TNF-alpha F and TNF-alpha R), IL-1 beta (IL1-beta F and IL1-beta R) and POLR2A (POLR2A F and POLR2A R) as reference gene were chosen using the Primer Express 2 software (Applied Biosystems, Foster City, USA). For the graphical representation of the quantitative PCR data, the values of Ct obtained for the target genes are compared with those of the reference gene, using the ΔΔCt method, that is to say: ΔΔCt=(Ct of the target gene−Ct of the reference gene) treated mouse−(Ct of the target gene−Ct of the reference gene) non-treated mouse, and the final data are derived from 2-ΔΔCt.
Compound 26 was evaluated in mice in a model of colitis caused by TNBS in accordance with a described protocol (Desreumaux, P.; Dubuquoy, L.; Nutten, S.; Peuchmaur, M.; Englaro, W.; Schoonjans, K.; Derijard, B.; Desvergne, B.; Wahli, W.; Chambon, P.; Leibowitz, M. D.; Colombel, J. F.; Auwerx, J. Attenuation of Colon Inflammation Through Activators of the Retinoid X Receptor (RXR)/Peroxisome Proliferator-Activated Receptor Gamma (PPARgamma) Heterodimer. A Basis for New Therapeutic Strtegies. J. Exp. Med. 2001, 193, 827-838). Thus compound 26 was administered orally in carboxymethyl cellulose (CMC) each day at a dose of 0.1, 1 and 10 mg/kg for seven days, and two days before the induction of colitis. A control with an administration of CMC alone was effected.

[3] = Table 3, radioligand [3H]-CP-55,940 0.5 nM, read-out: Binding affinity hCB1 Ki
[4] = Table 2, radioligand [3H]-CP-55,940 0.5 nM, read-out: Binding affinity hCB2 Ki
[5] = Table 2, radioligand [3H]-CP-55,940 0.5 nM, read-out: Binding affinity hCB1 Ki

T1 sequence (P34972 whole entry): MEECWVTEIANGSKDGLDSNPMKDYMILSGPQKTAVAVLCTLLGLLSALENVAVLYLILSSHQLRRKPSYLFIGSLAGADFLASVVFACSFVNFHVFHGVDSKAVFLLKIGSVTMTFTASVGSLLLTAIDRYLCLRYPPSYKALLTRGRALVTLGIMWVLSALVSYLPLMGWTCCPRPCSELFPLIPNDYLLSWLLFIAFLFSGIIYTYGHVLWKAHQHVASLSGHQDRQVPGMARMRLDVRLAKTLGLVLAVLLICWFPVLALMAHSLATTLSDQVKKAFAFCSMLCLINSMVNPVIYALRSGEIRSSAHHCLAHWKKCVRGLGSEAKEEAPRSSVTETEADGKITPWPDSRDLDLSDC
hCB1, sequence (P21554 whole entry): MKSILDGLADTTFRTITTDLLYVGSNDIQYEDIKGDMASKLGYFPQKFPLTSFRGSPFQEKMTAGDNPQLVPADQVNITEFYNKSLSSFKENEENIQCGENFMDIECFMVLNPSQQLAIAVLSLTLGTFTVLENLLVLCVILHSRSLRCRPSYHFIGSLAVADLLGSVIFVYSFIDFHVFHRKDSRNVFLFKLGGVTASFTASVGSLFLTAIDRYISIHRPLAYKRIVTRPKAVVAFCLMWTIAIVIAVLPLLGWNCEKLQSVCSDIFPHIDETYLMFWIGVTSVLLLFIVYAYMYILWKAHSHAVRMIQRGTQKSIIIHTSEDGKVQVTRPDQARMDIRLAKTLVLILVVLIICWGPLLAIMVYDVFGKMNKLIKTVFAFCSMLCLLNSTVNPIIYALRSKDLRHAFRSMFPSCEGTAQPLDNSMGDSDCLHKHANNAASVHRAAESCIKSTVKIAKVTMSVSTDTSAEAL

CCCCn1cc2c(=O)n(CC3CCCCC3)nc-2c2ccccc21 [Compound 40, 2-(Cyclohexylmethyl)-5-butyl-2H-pyrazolo[4,3-c]quinolin-3(5H)-one]
Ki (hCB2 [1]): 0.0148 µM | Ki (hCB1; [3]): > 10 µM | melting point: 216 °C

CCCCCn1cc2c(=O)n(CC34CC5CC(CC(C5)C3)C4)nc-2c2ccccc21 [Compound 26, 2-(1-Adamantylmethyl)-5-pentyl-2H-pyrazolo[4,3-c]quinolin-3(5H)-one]
Ki (hCB2 [1]; [4]): 0.00039 ± 3e-05 µM | EC50 (hCB2 [2]): 0.064 ± 0.01 µM | Emax (hCB2 [2]): 163 ± 4% | Overall efficacy against colitis (colitis caused by TNBS; oral administration): effective in mice against colitis in a dose-dependent manner | Loss of body weight (colitis caused by TNBS; oral daily treatment 0.1, 1 and 10 mg/kg, five days after TNBS): attenuates in a dose-dependent manner the loss of weight | Macroscopic score (colitis caused by TNBS; oral, 10 mg/kg, scale 0 to 10, printed as 1.7 versus 1.9): 1.7 | Mortality / survival rate (colitis caused by TNBS; oral, 0.1, 1 and 10 mg/kg daily, versus untreated mice (FIG. 1A)): reduction in mortality | Macroscopic score (colitis caused by TNBS; oral, 0.1, 1 and 10 mg/kg, colon after euthanasia (FIG. 2A)): reduces the macroscopic scores (FIG. 2A) in a dose-dependent manner | Attenuation of histological scores (colitis caused by TNBS; oral, histological score scale 0 to 6 (FIG. 2B)): 65%

CCCCCn1cc2c(=O)n(Cc3ccccc3)nc-2c2ccccc21 [Compound 19, 2-Benzyl-5-pentyl-2H-pyrazolo[4,3-c]quinolin-3(5H)-one]
Ki (hCB2 [1]): > 3 µM | Ki (hCB1): > 3 µM

CCCCCn1cc2c(=O)n(CCC34CC5CC(CC(C5)C3)C4)nc-2c2ccccc21 [Compound 27, 2-(1-Adamantylethyl)-5-pentyl-2H-pyrazolo[4,3-c]quinolin-3 (5H)-one]
Ki (hCB2 [1]; [4]): 0.0261 ± 0.0038 µM

CCCCCn1cc2c(=O)n(CC3CCCCC3)nc-2c2ccccc21 [Compound 24, 2-(Cyclohexylmethyl)-5-pentyl-2H-pyrazolo[4,3-c]quinolin-3(5H)-one]
Ki (hCB2 [1]; [4]): 0.00062 ± 3e-05 µM | Ki (hCB1): > 3 µM | EC50 (hCB2 [2]): 0.0143 ± 0.004 µM | Emax (hCB2 [2]): 149 ± 4%

CCCCCCn1cc2c(=O)n(CC3CCCCC3)nc-2c2ccccc21 [Compound 41, 2-(Cyclohexylmethyl)-5-hexyl-2H-pyrazolo[4,3-c]quinolin-3(5H)-one]
Ki (hCB2 [1]): 0.0311 µM | Ki (hCB1; [3]): > 10 µM | melting point: 193 °C

CCCCCn1cc2c(=O)[nH]nc-2c2ccccc21 [Compound 8, 5-Pentyl-2H-pyrazolo[4,3-c]quinolin-3(5H)-one]
Ki (hCB2 [1]; [4]): > 3 µM | Ki (hCB1; [5]): > 3 µM

CCCCCn1cc2c(=O)n(C3CCCCC3)nc-2c2ccccc21 [Compound 16, 2-Cyclohexyl-5-pentyl-2H-pyrazolo[4,3-c]quinolin-3 (5H)-one]
Ki (hCB2 [1]; [4]): 0.0188 ± 0.0033 µM | Ki (hCB1): > 3 µM | EC50 (hCB2 [2]): 0.204 ± 0.041 µM | Emax (hCB2 [2]): 160 ± 3%

O=c1c2cn(CCCC(F)(F)F)c3ccccc3c-2nn1CC1CCCCC1 [Compound 43, 2-(Cyclohexylmethyl)-5-(4,4,4-trifluorobutyl)-2H-pyrazolo[4,3-c]quinolin-3(5H)-one]
Ki (hCB2 [1]): 0.00617 µM | Ki (hCB1; [3]): 1.68 µM | melting point: 224 °C

CCCCCn1cc2c(=O)n(CCC3CCCCC3)nc-2c2ccccc21 [Compound 25, 2-(2-Cyclohexylethyl)-5-pentyl-2H-pyrazolo[4,3-c]quinolin-3(5H)-one]
Ki (hCB2 [1]; [4]): 0.008 ± 0.0004 µM | Ki (hCB1): > 3 µM | EC50 (hCB2 [2]): 0.0054 ± 0.0011 µM | Emax (hCB2 [2]): 141 ± 3%

CCCCCCn1nc2c3ccccc3n(CCCCC)cc-2c1=O [Compound 22, 2-Hexyl-5-pentyl-2H-pyrazolo[4,3-c]quinolin-3(5H)-one]
Ki (hCB2 [1]; [4]): 0.0077 ± 0.0003 µM | Ki (hCB1): > 3 µM

CCCCCn1cc2c(=O)n(CC3CC3)nc-2c2ccccc21 [Compound 23, 2-(Cyclopropylmethyl)-5-pentyl-2H-pyrazolo[4,3-c]quinolin-3(5H)-one]
Ki (hCB2 [1]; [4]): 0.0104 ± 0.0031 µM | Ki (hCB1; [5]): > 3 µM

CCCCCn1nc2c3ccccc3n(CCCCC)cc-2c1=O [Compound 21, 2,5-Dipentyl-2H-pyrazolo[4,3-c]quinolin-3(5H)-one]
Ki (hCB2 [1]; [4]): 0.0043 ± 0.0003 µM | Ki (hCB1): > 3 µM

O=c1c2cn(CC3CCOCC3)c3ccccc3c-2nn1CC1CCCCC1 [Compound 42, 2-(Cyclohexylmethyl)-5-(tetrahydro-2H-4-pyranylmethyl)-pyrazolo[4,3-c]quinolin-3(5H)-one]
Ki (hCB2 [1]): 0.00532 µM | Ki (hCB1): 0.52 µM | melting point: > 250 °C
